Measurements reported in publication PMC11989107, “Biochemical and Structural Characterization of a Highly Glucose-Tolerant β-Glucosidase from the Termite Reticulitermes perilucifugus” (International Journal of Molecular Sciences, 2025).

Columns and labels:
RpBgl8 [1] = target: T1, RpBgl8 (Reticulitermes perilucifugus, UniProt A0A7G5VX36); test: pNPG hydrolysis with added glucose; assay type: biochemical
T1 construct: forward primer encodes MSALKF

RpBgl8 [2] = target: T2, RpBgl8 (Reticulitermes perilucifugus, UniProt A0A7G5VX36, F124W); test: pNPG hydrolysis with added glucose; assay type: biochemical; details: 5 mM pNPG, phosphate buffer pH 7.0, 37 °C, reference of the reduction (no glucose or wild type) not told
T2 construct: forward primer encodes MSALKF
T2 sequence (A0A7G5VX36 entry or part of it F124W): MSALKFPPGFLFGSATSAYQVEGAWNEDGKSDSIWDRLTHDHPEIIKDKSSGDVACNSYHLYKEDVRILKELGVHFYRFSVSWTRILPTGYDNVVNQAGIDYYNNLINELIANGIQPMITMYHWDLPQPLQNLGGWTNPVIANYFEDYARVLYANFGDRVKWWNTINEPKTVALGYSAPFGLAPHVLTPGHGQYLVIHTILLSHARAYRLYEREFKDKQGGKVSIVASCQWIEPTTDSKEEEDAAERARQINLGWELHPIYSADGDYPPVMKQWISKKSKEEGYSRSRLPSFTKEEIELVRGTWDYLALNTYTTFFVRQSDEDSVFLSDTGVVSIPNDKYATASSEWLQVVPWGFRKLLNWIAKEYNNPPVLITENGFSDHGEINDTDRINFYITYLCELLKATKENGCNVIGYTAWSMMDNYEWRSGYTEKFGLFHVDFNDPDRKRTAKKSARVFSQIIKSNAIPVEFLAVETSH

T1 sequence (A0A7G5VX36 entry or part of it): as the sequence (A0A7G5VX36 entry or part of it F124W) above, with W124F counted along it

`OC[C@H]1OC(O)[C@H](O)[C@@H](O)[C@@H]1O` (some centres unmarked) [glucose] was tested, and the activity at 4 M (RpBgl8 [1]) was 82% and the “% reduction of activity at 4.0 M glucose” value (RpBgl8 [2]) was 54.2%.
